Laboratory results published in patent publication US11726081B2, “Methods to identify modulators of tau protein structure” (REGENTS OF THE UNIVERSITY OF MINNESOTA, priority 2019, dated 2023).
“Also recorded” adds a separate entry of the source.

Assays:
[1] = target: purified recombinant full-length 2N4R wild-type (WT) tau protein (Homo sapiens, UniProt P10636); test: Surface plasmon resonance (SPR) binding assay, WT tau; settings: for direct binding to immobilized tau protein: 1 nM to 5 μM
[2] = target: T1, tau intra-molecular FRET biosensor (GFP-tau-RFP) (Homo sapiens, UniProt P10636); test: Cellular tau intra-molecular FRET biosensor, dose-response; type: cell-based; settings: GFP-tau-RFP stable HEK293 cells; read-out: EC50, reduction of intra-molecular FRET
T1 construct: The FRET biosensors express full-length 2N4R wild-type (WT) tau; […]; expressed in transfected cells
Description: To generate tau-GFP and tau-RFP, cDNA encoding full-length 2N4R tau (441 amino acids) was fused to the N-terminus of EGFP and TagRFP vectors. […] The GFP-tau-RFP was generated by fusing the N-terminal of tau to the C-terminus of GFP and the C-terminus of tau to the N-terminus of RFP. All constructs contain the monomeric mutation A206K to prevent constitutive fluorophore clustering.
HEK293 and SH-SY5Y cells (ATCC) were cultured in phenol red-free Dulbecco's Modified Eagle Medium (DMEM, Gibco) supplemented with 2 mM L-Glutamine (Invitrogen), heat-inactivated 10% fetal bovine serum (FBS HI, Gibco), 100 U/ml penicillin and 100 μg/ml streptomycin (Gibco). Cell cultures were maintained in an incubator with 5% CO2 (Forma Series II Water Jacket CO2 Incubator, Thermo Scientific) at 37° C. […] To generate stable cell lines expressing GFP-tau-RFP or tau-GFP only, HEK293 cells were transiently transfected using Lipofectamine 3000 with GFP-tau-RFP or tau-GFP DNA plasmids. Transiently transfected cells were treated with G418 (Enzo Life Sciences, Farmingdale, N.Y.) to eliminate non-expressing cells. Stable cell lines expressing GFP-tau-RFP or tau-GFP with the largest population of expressing cells were selected by fluorescence microscopy. The GFP-linker-RFP (linker contains 32 amino acids, GFP-32AA-RFP) control stable cell line was generated as described previously. […]

[3] = tested on: GFP-32AA-RFP; test: GFP-32AA-RFP fluorophores-only FRET control; type: cell-based, human
Description: (§1) HEK293 and SH-SY5Y cells (ATCC) were cultured in phenol red-free Dulbecco's Modified Eagle Medium (DMEM, Gibco) supplemented with 2 mM L-Glutamine (Invitrogen), heat-inactivated 10% fetal bovine serum (FBS HI, Gibco), 100 U/ml penicillin and 100 μg/ml streptomycin (Gibco). Cell cultures were maintained in an incubator with 5% CO2 (Forma Series II Water Jacket CO2 Incubator, Thermo Scientific) at 37° C. […] To generate stable cell lines expressing GFP-tau-RFP or tau-GFP only, HEK293 cells were transiently transfected using Lipofectamine 3000 with GFP-tau-RFP or tau-GFP DNA plasmids. Transiently transfected cells were treated with G418 (Enzo Life Sciences, Farmingdale, N.Y.) to eliminate non-expressing cells. Stable cell lines expressing GFP-tau-RFP or tau-GFP with the largest population of expressing cells were selected by fluorescence microscopy. The GFP-linker-RFP (linker contains 32 amino acids, GFP-32AA-RFP) control stable cell line was generated as described previously. The control cells expressing only free soluble fluorophores (GFP or RFP only) were generated by transiently transfecting HEK293 cells using Lipofectamine 3000 with plasmids containing GFP or RFP DNAs at the same plasmid concentration as the inter-molecular tau FRET biosensor.
(§2) The compound was dissolved in DMSO to make a 10 mM stock solution, which was serially diluted in 96-well mother plates. […]

[4] = tested on: soluble free GFP/RFP; test: Soluble free GFP/RFP-only FRET control; type: cell-based, human
Description: as §1, §2

[5] = tested on: WT 2N4R tau; test: Single-molecule FRET (smFRET) on labelled tau monomer; type: biochemical; settings: 5 μM
Description: For site-specific labeling with maleimide-reactive fluorophores, cysteine residues were introduced using QuikChange Site-Directed Mutagenesis (Stratagene). Naturally occurring cysteines were mutated to serines. Labelling positions were selected to roughly mark the boundaries of the N-terminal domain or the proline-rich and microtubule-binding region of tau. Tau protein was purified as described above and labeled immediately following purification following published protocols. Briefly, the protein (typically 200 μL of ˜100 μM protein) was incubated with 1 mM DTT for 30 minutes at room temperature followed by exchange into labeling buffer (20 mM Tris pH 7.4, 50 mM NaCl, and 6 M guanidine HCl) to remove DTT. […]
Single-molecule FRET measurements were carried out using ˜30 pM of labelled tau in phosphate buffer (40 mM potassium phosphate, 50 mM KCl, pH 7.4) in 8-chambered Nunc coverslips (ThermoFisher) passivated with poly(ethylene glycol) poly(L-lysine) (PEG-PLL) to reduce protein adsorption to the chambers. […] Fluorescence emission was collected through the objective and passed through a 150 μm diameter pinhole. Photons were separated by an HQ585LP dichroic in combination with ET525/50M and HQ600LP filters and detected by avalanche photodiodes. […] The FRET efficiency (ETeff) was calculated using SymphoTime 64 software. […]

[6] = target: purified WT tau proteins (Homo sapiens, UniProt P10636); test: Heparin induced thioflavin-T (ThT) aggregation assay; type: biochemical
Description: Thioflavin-T (ThT, Sigma, product no. T3516) was dissolved in PBS buffer and was filtered through a 0.2 μm syringe filter to make a stock solution of 2.5 mM. ThT was then diluted to […] prior to addition to the tau proteins. The samples for ThT measurements were prepared by mixing 25 μl of 20 μM tau proteins with 25 μl of 20 μM of ThT, resulting in final concentrations of 10 μM tau proteins and 10 μM ThT. DTT (5 mM) and heparin (0.4 mg/ml) were then added to the samples; a control sample lacked addition of heparin. Lastly, the samples were treated with MK-886 (0.5 μM or 5 μM) and gossypetin (50 μM) with DMSO added to the no-compound controls. The ThT samples (50 μl each) were transferred to a black 96-well non-binding surface microplate with clear bottom (Corning product no. 3655) and incubated at 37° C. with mild shaking (200 rpm) in the Cytation 3 plate reader. The ThT fluorescence was measured by the Cytation 3 plate reader through the bottom of the plate with excitation filter of 440 nm and emission filter of 480 nm. Readings were acquired every 20 minutes for a total of 120 hours.

[7] = target: tau preformed fibrils (PFF) (Homo sapiens, UniProt P10636); test: ThT assay on tau preformed fibrils (PFF); type: biochemical; settings: DTT 5 mM
Description: HEK293 cells were transfected with tau-RFP (at equivalent DNA concentration as used in the tau FRET biosensor) for 48 hours prior to the addition of tau preformed fibrils (PFF). Tau-GFP was not used as it would interfere with the thioflavin-S(ThS) signal. To make the PFF, 100 μl of purified tau proteins (10 μM) with DTT (5 mM) and heparin (0.4 mg/ml) were first incubated for 120 hours at 37° C. and shook at 1000 rpm in a thermal shaker (Thermo Fisher Scientific). After incubation, the sample was subjected to ultracentrifugation at 80,000 rpm for 30 minutes. The pellet was collected and sonicated to break up the fibrils into smaller pieces. The concentration of the fibrils was then measured by BCA. […] Cells were then imaged with a fluorescence microscope using EVOS-FL cell imaging systems at 20× magnification. Mean fluorescence intensity for each image was quantified using ImageJ and values were normalized to untransfected controls.
Thioflavin-T (ThT, Sigma, product no. T3516) was dissolved in PBS buffer and was filtered through a 0.2 μm syringe filter to make a stock solution of 2.5 mM. […] The ThT samples (50 μl each) were transferred to a black 96-well non-binding surface microplate with clear bottom (Corning product no. 3655) and incubated at 37° C. with mild shaking (200 rpm) in the Cytation 3 plate reader. […] Readings were acquired every 20 minutes for a total of 120 hours.

[8] = target: T2, WT tau FRET biosensor (tau-GFP/RFP) (Homo sapiens, UniProt P10636); test: Pilot HTS of NCC library with tau FRET biosensor (fluorescence lifetime); settings: 10 μM, 2 hours
[9] = target: T2, WT tau FRET biosensor (tau-GFP/RFP); test: WT tau inter-molecular FRET biosensor in HEK293 cells (dose-response, functionality); type: cell-based; design: cDNA encoding full-length 2N4R tau (441 amino acids); […]; expressed in transfected cells; host or cells: HEK293, transient, tau-GFP:tau-RFP plasmids 1:20
Description: as §1, §2

[10] = control, 72 hours of incubation

T2 sequence (P10636 1-441 isoform P10636-8): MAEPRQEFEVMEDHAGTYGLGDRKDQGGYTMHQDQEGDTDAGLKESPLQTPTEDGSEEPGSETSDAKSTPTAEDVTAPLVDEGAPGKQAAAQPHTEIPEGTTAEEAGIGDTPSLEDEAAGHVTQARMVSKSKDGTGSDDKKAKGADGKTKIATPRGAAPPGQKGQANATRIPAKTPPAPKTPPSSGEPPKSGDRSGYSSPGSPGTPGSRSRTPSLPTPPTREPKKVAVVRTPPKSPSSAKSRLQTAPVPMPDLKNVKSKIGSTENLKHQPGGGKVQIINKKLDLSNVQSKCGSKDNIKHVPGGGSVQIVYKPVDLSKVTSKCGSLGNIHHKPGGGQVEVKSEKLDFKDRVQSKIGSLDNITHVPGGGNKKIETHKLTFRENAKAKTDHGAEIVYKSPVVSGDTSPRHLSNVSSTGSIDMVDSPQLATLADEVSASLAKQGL
T2 sequence (P10636 1-441 isoform P10636-8): as above
Chain of purified WT tau proteins (P10636 1-441 isoform P10636-8): as above
Chain of purified recombinant full-length 2N4R wild-type (WT) tau protein (P10636 1-441 isoform P10636-8): as above
Chain of tau preformed fibrils (PFF) (P10636 1-441 isoform P10636-8): as above
T1 sequence (P10636 1-441 isoform P10636-8): as above

For CC(C)c1ccc2c(c1)c(SC(C)(C)C)c(CC(C)(C)C(=O)O)n2Cc1ccc(Cl)cc1 [MK-886], the “direct binding to immobilized tau protein” value (shortened to “direct binding”) [1] was “dose-dependent binding”, the Kd ([1]; steady-state, immobilized tau, 25° C.) was 0.178 µM and the EC50 [2] was 2.12 µM. The “FRET change in GFP-32AA-RFP control cells” value [3] was “does not cause any significant FRET change”, the “FRET change in soluble free GFP/RFP-only control cells” value [4] was “does not cause any significant FRET change” and the “smFRET change, N-terminal domain labelled construct” value [5] was “only a minor decrease in FRET; also recorded: only minor differences”. For the same compound, the “smFRET change, PRR/MTBR labelled construct” value [5] was “substantial increase in FRET; also recorded: substantially more compact (increase in FRET)”, the “direct effect on ThT fluorescence” value [6, 10] was “did not have a direct effect on ThT fluorescence; also recorded: do not interfere with ThT fluorescence” and the “nucleation of fibril formation without heparin” value [6, 10] was “unable to nucleate tau fibrillization; also recorded: did not act to nucleate for fibril formation; also recorded: does not act as a nucleation center”. For the same compound, the “lag phase of tau β-sheet fibril formation” value ([6]; heparin 0.4 mg/ml, MK-886 0.5 and 5 μM) was “reduces the lag phase; also recorded: shortens the lag phase”, the “ThT signal from tau preformed fibrils (PFF)” value [7] was “did not reduce the ThT signal” and the “size of FRET change among the hits” value [8] was “strongest change in FRET; also recorded: largest FRET change”. For the same compound, the EC50 ([9]; read-out: EC50, decrease of FRET efficiency, WT tau biosensor) was 1.4 µM.

In the case of O=c1c(O)c(-c2ccc(O)c(O)c2)oc2c(O)c(O)cc(O)c12 [gossypetin], the “direct effect on ThT fluorescence” value [6, 10] is reported as “do not interfere with ThT fluorescence”, the “ThT signal from tau preformed fibrils (PFF)” value [7] is reported as “showed a significant decrease” and the “sensitivity of the FRET biosensor to the compound” value ([9]; functionality test) is reported as “not”.

Cc1cccc(Nc2ccncc2S(=O)(=O)NC(=O)NC(C)C)c1 [Torsemide] was tested, and the “direct binding” value [1] was “no direct binding or interaction”.

CCCCNc1cc(C(=O)O)cc(S(N)(=O)=O)c1Oc1ccccc1 [Bumetanide] was tested, and the “direct binding” value [1] was “no direct binding or interaction”.

In the case of Oc1cc(Cl)ccc1Oc1ccc(Cl)cc1Cl [Triclosan], the “direct binding” value [1] is reported as “no direct binding or interaction”.

In the case of CCc1oc2ccccc2c1C(=O)c1cc(Br)c(O)c(Br)c1 [Benzbromarone], the “direct binding” value [1] is reported as “no direct binding or interaction”.
